In US12558435B2, “Transient inhibition of p53 in gene therapy” (Ospedale San Raffaele S.R.L., priority 2018, dated 2026):

Experiments:
[1] = tested on: human CD34+ cells; assay type: cell-based; conditions: for HDR efficiency (GFP+ cells): molecules added one day before viral transduction, FIG. 2B; for editing efficiency by molecular analyses on genomic DNA: human HSPC, FIG. 8B
Description: CD34+ cells were either freshly purified from human CB after obtaining informed consent and upon approval by the Ospedale San Raffaele Bioethical Committee, or purchased frozen from Lonza. CD34+ cells were edited according to a previously optimized protocol (Schiroli et al. 2017 supra).
Briefly, 5×10^5 CD34+ cells/ml were stimulated in serum-free StemSpan medium (StemCell Technologies) supplemented with penicillin, streptomycin, glutamine, 1 μM SR-1 (Biovision), […] (STEMCell Technologies), 10 μM PGE2 added only at the beginning of the culture (Cayman), and human early-acting cytokines (SCF 100 ng/ml, Flt3-L 100 ng/ml, TPO 20 ng/ml, and IL-6 20 ng/ml; all purchased from Peprotech). After 3 days of prestimulation, cells were washed with PBS and electroporated using P3 Primary Cell 4D-Nucleofector X Kit and program EO-100 (Lonza). Cells were electroporated with 2.5-1.25 μM of RNPs.
Transduction with AAV6 was performed at a dose of 1-2×10^4 vg/cell 15′ after electroporation. GSE56 mRNA was utilized were indicated at a dose of 150 μg/ml. Gene editing efficiency was measured from cultured cells in vitro 3 days after electroporation by flow cytometry measuring the percentage of cells expressing the GFP marker or by digital droplet PCR analysis designing primers and probe on the junction between the vector sequence and the targeted locus and on control sequences utilized as normalizer as previously described (Schiroli et al. 2017 supra).
For HDR ddPCR, primers and probes were designed on the junction between the vector sequence and the targeted locus and on control sequences used for normalization (human TTC5 genes). Thermal conditions for annealing and extension were adjusted for each specific application as follows: AAVS1/Intron 1 IL2RG HDR 3′ integration junction ddPCR: 55° C. for 30 sec, 72° C. for 2 min. Primers and probes for PCR and ddPCR amplifications are shown below.
CD34^+ cells were purchased frozen from Lonza. CD34^+ cells were edited according to a previously optimised protocol (Schiroli, G. et al (2017) Sci Transl Med 9). Briefly, 1-5×10^5 CD34^+ cells/ml were stimulated in serum-free StemSpan medium (StemCell Technologies) supplemented with penicillin, streptomycin, glutamine, 1 μM of the arylhydrocarbon receptor antagonist SR-1 (Biovision), […] of the pyrimidoindole-derivative UM171 (STEMCell Technologies), 10 μM of the 15-hydroxy PGDH competitive inhibitor dmPGE-2 added only at the beginning of the culture (Cayman), and human early-acting cytokines (SCF 100 ng/ml, Flt3-L 100 ng/ml, TPO 20 ng/ml, and IL-6 20 ng/ml; all purchased from Peprotech). After 3 days of pre-stimulation, cells were washed with PBS and electroporated using P3 Primary Cell 4D-Nucleofector X Kit and program EO-100 (Lonza). Cells were electroporated with 1-1.2 μM of RNPs. Where specified, electroporation mixture was supplemented with Ad5-E4orf1, Ad5-E4orf6/7 and GSE56/Ad5-E4orf6/7 mRNAs, which were respectively utilized at doses of 120, 80 and 200 μg/ml, or Ad5-E1B55K and Ad5-E4orf6 mRNAs were used at 120 and 80 μg/ml. All other adenoviral protein variants were used at standard dose 120 μg/ml. Transduction with AAV-6 was performed 15 min post-electroporation at dose of 1-5×10^4 vg/cell. Where specified, CD34+ cells were stimulated for shorter time in culture (0, 24 or 48 hours) and edited as described above. Gene editing efficiency was measured from cultured cells in vitro at 4 days post-editing by flow cytometry measuring the percentage of cells expressing the GFP reporter gene or by digital droplet PCR analysis designing primers and probe on the junction between the vector sequence and the targeted locus and on control sequence utilised as normaliser as previously described (Schiroli, G. et al (2017) Sci Transl Med 9) and Schiroli et al., Cell Stem Cell 2019. […]

[2] = target: T1, ATR (Mus musculus, UniProt Q9JKK8); conditions: in 3T3TopBP1-ER cells; cited from earlier work
T1 construct: endogenous in cells; host or cells: 3T3TopBP1-ER cells

[3] = target: ATR (Homo sapiens, UniProt Q13535); conditions: cited from earlier work
Sequence of ATR (Homo sapiens, UniProt Q13535) (Q13535 whole entry): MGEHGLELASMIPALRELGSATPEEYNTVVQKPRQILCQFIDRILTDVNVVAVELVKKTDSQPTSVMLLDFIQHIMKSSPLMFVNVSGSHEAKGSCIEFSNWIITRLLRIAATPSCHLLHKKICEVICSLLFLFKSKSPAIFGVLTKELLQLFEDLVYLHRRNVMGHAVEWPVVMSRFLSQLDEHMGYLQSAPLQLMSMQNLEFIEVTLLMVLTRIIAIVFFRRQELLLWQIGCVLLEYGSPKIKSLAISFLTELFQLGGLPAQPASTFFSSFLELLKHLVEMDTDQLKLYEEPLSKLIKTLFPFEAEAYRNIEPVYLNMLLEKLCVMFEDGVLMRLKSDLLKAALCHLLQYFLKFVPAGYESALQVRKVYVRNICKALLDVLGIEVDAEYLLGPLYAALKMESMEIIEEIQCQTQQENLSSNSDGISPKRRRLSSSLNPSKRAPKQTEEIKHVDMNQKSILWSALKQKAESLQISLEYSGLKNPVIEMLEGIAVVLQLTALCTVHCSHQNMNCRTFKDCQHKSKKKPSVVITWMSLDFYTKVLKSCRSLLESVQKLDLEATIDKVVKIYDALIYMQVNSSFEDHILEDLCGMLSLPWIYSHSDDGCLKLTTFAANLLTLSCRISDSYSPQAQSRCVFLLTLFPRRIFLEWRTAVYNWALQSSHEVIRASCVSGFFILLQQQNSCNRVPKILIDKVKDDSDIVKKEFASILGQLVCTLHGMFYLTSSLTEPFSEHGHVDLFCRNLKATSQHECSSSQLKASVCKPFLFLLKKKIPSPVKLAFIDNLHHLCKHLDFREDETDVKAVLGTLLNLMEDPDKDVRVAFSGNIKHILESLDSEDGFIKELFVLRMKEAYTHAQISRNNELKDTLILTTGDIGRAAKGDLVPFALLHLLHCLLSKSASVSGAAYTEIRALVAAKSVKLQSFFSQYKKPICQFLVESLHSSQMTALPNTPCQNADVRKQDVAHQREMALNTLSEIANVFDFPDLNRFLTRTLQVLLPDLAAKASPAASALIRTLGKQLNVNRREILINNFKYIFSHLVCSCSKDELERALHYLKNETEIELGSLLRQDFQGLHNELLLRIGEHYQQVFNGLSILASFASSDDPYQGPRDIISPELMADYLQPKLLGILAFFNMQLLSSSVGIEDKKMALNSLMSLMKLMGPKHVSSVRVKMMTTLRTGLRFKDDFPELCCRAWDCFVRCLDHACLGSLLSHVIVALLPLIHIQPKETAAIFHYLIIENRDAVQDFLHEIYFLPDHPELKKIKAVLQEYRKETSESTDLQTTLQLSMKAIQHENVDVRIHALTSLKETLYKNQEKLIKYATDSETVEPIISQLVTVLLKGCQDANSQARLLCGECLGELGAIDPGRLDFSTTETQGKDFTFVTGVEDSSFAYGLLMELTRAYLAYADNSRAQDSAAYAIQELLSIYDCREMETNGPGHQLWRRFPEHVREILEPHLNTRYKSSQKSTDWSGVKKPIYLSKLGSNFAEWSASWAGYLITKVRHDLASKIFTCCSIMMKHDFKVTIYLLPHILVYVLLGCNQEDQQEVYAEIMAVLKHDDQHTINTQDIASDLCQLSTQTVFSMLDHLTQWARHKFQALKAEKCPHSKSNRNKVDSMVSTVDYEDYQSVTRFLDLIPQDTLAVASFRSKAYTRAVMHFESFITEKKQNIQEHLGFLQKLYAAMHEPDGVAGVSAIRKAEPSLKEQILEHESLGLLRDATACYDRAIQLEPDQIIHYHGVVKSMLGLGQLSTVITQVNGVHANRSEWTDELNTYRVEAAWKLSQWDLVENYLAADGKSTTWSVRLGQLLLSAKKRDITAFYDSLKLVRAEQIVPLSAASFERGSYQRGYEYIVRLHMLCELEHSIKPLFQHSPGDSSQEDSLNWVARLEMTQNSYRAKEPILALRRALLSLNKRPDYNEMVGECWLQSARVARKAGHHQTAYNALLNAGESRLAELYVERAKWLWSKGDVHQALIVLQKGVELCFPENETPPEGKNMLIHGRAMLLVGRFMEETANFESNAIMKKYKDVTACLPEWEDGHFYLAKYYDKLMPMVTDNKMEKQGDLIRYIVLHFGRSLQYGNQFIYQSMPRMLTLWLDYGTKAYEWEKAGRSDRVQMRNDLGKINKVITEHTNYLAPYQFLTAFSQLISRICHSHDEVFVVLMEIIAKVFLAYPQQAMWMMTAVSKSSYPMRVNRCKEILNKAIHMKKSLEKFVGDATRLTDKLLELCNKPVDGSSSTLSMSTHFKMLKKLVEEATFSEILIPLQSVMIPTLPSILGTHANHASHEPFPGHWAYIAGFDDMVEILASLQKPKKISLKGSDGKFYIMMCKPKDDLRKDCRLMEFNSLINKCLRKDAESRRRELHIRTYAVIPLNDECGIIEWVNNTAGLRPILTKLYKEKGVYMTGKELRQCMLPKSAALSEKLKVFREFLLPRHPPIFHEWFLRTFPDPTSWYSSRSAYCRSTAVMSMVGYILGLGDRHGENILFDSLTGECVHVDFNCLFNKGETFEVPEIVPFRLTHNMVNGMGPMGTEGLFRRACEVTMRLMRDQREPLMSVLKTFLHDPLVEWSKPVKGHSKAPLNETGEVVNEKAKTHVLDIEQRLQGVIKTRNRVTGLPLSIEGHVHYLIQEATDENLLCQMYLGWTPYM
Sequence of ATR (Homo sapiens, UniProt Q13535) (Q8WXE1 whole entry partner): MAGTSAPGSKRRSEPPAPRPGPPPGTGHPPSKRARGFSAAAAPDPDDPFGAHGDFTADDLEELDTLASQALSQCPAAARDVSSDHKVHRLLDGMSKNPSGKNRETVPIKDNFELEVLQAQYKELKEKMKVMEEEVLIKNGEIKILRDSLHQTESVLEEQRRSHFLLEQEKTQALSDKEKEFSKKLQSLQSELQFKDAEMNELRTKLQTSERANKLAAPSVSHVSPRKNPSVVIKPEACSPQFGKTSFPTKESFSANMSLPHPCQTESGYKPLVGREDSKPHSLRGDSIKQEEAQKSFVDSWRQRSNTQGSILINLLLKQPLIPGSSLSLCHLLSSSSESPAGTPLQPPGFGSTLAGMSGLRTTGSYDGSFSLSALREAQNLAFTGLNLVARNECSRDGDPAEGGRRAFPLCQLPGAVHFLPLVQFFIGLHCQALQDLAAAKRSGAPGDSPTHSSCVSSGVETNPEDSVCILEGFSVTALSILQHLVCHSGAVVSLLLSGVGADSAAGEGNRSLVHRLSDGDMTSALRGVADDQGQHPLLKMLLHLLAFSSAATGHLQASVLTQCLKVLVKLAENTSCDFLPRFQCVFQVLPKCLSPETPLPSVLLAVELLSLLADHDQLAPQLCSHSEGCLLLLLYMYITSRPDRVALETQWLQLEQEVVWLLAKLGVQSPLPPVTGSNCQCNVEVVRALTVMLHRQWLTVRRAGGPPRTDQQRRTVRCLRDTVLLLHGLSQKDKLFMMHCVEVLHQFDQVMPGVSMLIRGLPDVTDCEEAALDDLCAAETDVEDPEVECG

[4] = tested on: human CD34+ cells; assay: Cell growth curve of edited CD34+ cells; assay type: cell-based
[5] = DMSO and ethanol; cited from earlier work
[6] = tested on: human CD34+ cells; assay: NHEJ by mismatch-sensitive endonuclease (T7 Endonuclease I) assay in edited CD34+ cells; assay type: cell-based; conditions: bulk cells, 3 days after gene editing; FIG. 2C
Description: The percentage of insertions and deletion (indels) introduced by the Non Homologous End Joining (NHEJ) repair pathway on the nucleases target site was measured by a mismatch-sensitive endonuclease assay (PCR-based amplification of the targeted locus followed by digestion with T7 Endonuclease I; digested DNA fragments were resolved and quantified by capillary electrophoresis on LabChip GX Touch HT, Perkin Elmer) The levels of NHEJ-induced mutations were used as surrogate readout for scoring nucleases activity.
For molecular analyses, genomic DNA was isolated with DNeasy Blood & Tissue Kit or QIAamp DNA Micro Kit (QIAGEN) according to the number of cells available. Nuclease activity (IL2RG intron 1, AAVS1) was measured by mismatch-sensitive endonuclease assay by PCR-based amplification of the targeted locus followed by digestion with T7 Endonuclease I (NEB) according to the manufacturer's instructions. Digested DNA fragments were resolved and quantified by capillary electrophoresis on LabChip GX Touch HT (Perkin Elmer) according to the manufacturer's instructions.
For molecular analyses, genomic DNA was isolated with DNeasy Blood & Tissue Kit or QIAamp DNA Micro Kit (QIAGEN) according to the number of cells available. […] Digested DNA fragments were resolved and quantified by capillary electrophoresis on LabChip GX Touch HT (Perkin Elmer) according to the manufacturer's instructions.

[7] = target: ATM kinase (Homo sapiens, UniProt Q13315); conditions: cited from earlier work
[8] = tested on: human CD34+ cells; assay: CFU-C / colony forming cell assay of edited CD34+ cells; assay type: cell-based
[9] = tested on: human CD34+ cells; assay: Cell cycle analysis by Hoechst 33342 staining; assay type: cell-based; conditions: bulk treated cells; 12-24 hours; FIG. 14H
Description: Cell cycle was analysed by flow cytometry (CytoFLEX LX; Beckman Coulter) at 12-24 hours post-editing by collecting 0.5-1×10^5 total HSPCs in culture. Cells were washed with PBS+2% FBS and stained by using 10 μg/ml Hoechst 33342 (Sigma-Aldrich) in PBS+2% FBS for 0.5-1 hour in final volume equal to 200 μl.

[10] = tested on: human CD34+ cells transplanted into NSG mice; assay: Xenotransplantation of edited human CD34+ cells in NSG mice; assay type: in vivo; conditions: AAVS1; T0eq=3×10^5/mouse; FIG. 17B
Description: For transplantation, 3×10^5 CD34+ cells treated for editing at day 5 of culture were injected intravenously into NSG mice after sub-lethal irradiation (150-180 cGy). Sample size was determined by the total number of available treated cells. Mice were attributed to each experimental group randomly. Human CD45+ cell engraftment and the presence of gene-edited cells were monitored by serial collection of blood from the mouse tail and, at the end of the experiment (>20 weeks after transplantation), BM and spleen were harvested and analyzed.
NOD-SCID-IL2Rg^−/− (NSG) mice were purchased from The Jackson Laboratory and were maintained in specific-pathogen-free (SPF) conditions. The procedures involving animals were designed and performed with the approval of the Animal Care and Use Committee of the San Raffaele Hospital (IACUC #749) and communicated to the Ministry of Health and local authorities according to Italian law. For transplantation, 1.5-3×10^5 (for primary) or 2×10^6 (for secondary) CD34^+ treated cells at 24 hours post-editing protocol were injected intravenously into NSG mice after sub-lethal irradiation (180 cGy). Sample size was determined by the total number of available treated cells. Mice were attributed to each experimental group randomly. Human CD45^+ cell engraftment and the percentage of edited GFP^+ cells were monitored by serial collection of blood from the mouse tail over the weeks post-transplantation and at the end of the experiment (18-20 weeks post-transplantation) both spleen and bone-marrow were harvested and analysed.

## Cc1ccc(C(=O)Cn2c3c(sc2=N)CCCC3)cc1 [pifithrin-α, reference compound]
[1]; 3 days after gene editing
  HDR efficiency (GFP+ cells): increase in HDR efficiency

## Cn1c(=O)n(-c2ccc(C(C)(C)C#N)cc2)c2c3cc(-c4cnc5ccccc5c4)ccc3ncc21 [BEZ235]
[2]
  IC50: ~21 nM

## COc1cc2ncnc(-n3nc(-c4ccccn4)nc3N)c2cc1OC [CP-466722]
[3]
  effect on ATR: does not affect ATR

## E1B55K and E4orf6: combination of adenoviral proteins E1B55K (SEQ ID No. 15) and E4orf6 (SEQ ID No. 13), delivered as mRNAs
[4]; FIG. 8D
  growth curve of treated cells: lower compared to the standard
[1]; FIG. 15A
  GFP expression from the AAV6 donor: increased significantly the GFP expression
[1]; FIG. 15B
  HDR-mediated integrations at the targeted AAVS1 locus compared to standard: reducing HDR-mediated integrations
[1]
  editing efficiency by molecular analyses on genomic DNA: not effective in increasing the editing efficiency
[1]; mainly most primitive HSPC compartment, AAVS1, FIG. 8A
  transient increase in the fraction of GFP+ cells: up to 1.45 fold

## O=c1cc(-c2cccc3c2Sc2ccccc2S3)oc(N2CCOCC2)c1 [KU-55933]
[5]
  solubility: soluble in DMSO and ethanol

## N=c1sc2c(n1CC(=O)c1ccc([N+](=O)[O-])cc1)CCCC2 [pifithrin-α p-nitro, reference compound]
[1]; 3 days after gene editing
  HDR efficiency (GFP+ cells): increase in HDR efficiency

## Cc1ccc(-c2cn3c4c(sc3n2)CCCC4)cc1 [pifithrin-α cyclic, reference compound]
[6]
  increase in DNA repair by NHEJ: two-fold
[1]
  cellular toxicity: lowest cellular toxicity
[1]; 3 days after gene editing, FIG. 2C
  increase in gene editing in the most primitive CD34+ CD133+ CD90+ cell compartment: two-fold
[1]; 3 days after gene editing
  HDR efficiency (GFP+ cells): increase in HDR efficiency

## O=C(NC(NC(=S)Nc1ccc(F)c([N+](=O)[O-])c1)C(Cl)(Cl)Cl)C(c1ccccc1)c1ccccc1 (stereo not shown) [CGK 733]
[7]
  IC50: ~200 nM
[3]
  IC50: ~200 nM

B1: E4orf1: adenoviral protein from adenovirus serotype 5 E4 gene (SEQ ID No. 1), delivered as mRNA (protein)
chain: MAAAVEALYVVLEREGAILPRQEGFSGVYVFFSPINFVIPPMGAVMLSLRLRVCIPPGYFGRFLALTDVNQPDVFTESYIMTPDMTEELSVVLFNHGDQFFYGHAGMAVVRLMLIRVVFPVVRQASNV
modifications: delivered as mRNA; example amino acid sequence of Ad5-E4orf1
[8]; FIG. 7C
  increase in number of myeloid and erythroid colony forming units (CFU) compared to standard: 3 fold
[8]; FIG. 14G
  erythroid and myeloid clonogenic output compared to standard protocol: improved
[8]; among E4orf1 serotype variants, FIG. 21D
  number of colonies: highest number of colonies
[9]
  cell cycle states (G1 to S/G2/M): lower and not significant
[4]; FIG. 7D
  growth curve of treated cells compared to standard and E4orf6/7 alone: 4 fold
[4]; days post-editing, FIG. 14B
  cell growth compared to standard RNP+AAV6: about 2 fold
[10]
  human CD45+ cell engraftment in bloodstream, between groups: did not show any statistical significance
[1]; AAVS1, different mRNA doses, FIG. 6D
  targeting efficiency versus mRNA dose: dose dependent increase in the targeting efficiency
[1]; AAVS1, most primitive compartment (CD34+133+90+ / CD90+), 96 hours, FIG. 14C
  increase of GFP expression compared to standard RNP+AAV6: up to 1.3 fold
[1]; best performing mRNA dose, AAVS1, FIG. 6D
  mean increase in the percentage of targeted primitive HSPC: 1.5 fold
[1]
  editing efficiency by molecular analyses on genomic DNA: reproducibly able to boost editing
[1]; side-by-side, AAVS1, 4 days, FIG. 7A
  mean increase in the fraction of GFP+ cells compared to the standard: 1.2 fold
